Marks after values point to notes of the source that are not given here.

A short description of one data set: logP determination via retention times, calibrated with unbranched alkan-2-ones. The data set is classed as physicochemical. The note with it: HPLC on reversed-phase C 18, EEC Directive 79/831 Annex V.A8; method *: 40° C., 0.1% aqueous formic acid and acetonitrile, linear gradient 10% to 95% acetonitrile.
`CCC(=O)Nc1cccc(Nc2ncc(Cl)c(NCC3CC3)n2)c1` [compound 508]: the logP is recorded as 1.61*.

`O=C(Nc1cccc(Nc2ncc(Br)c(NCC3CC3)n2)c1)c1ccccc1` [compound 492]: the logP is given as 2.29*. Same read-out and setting: under `COC(=O)Nc1cccc(Nc2ncc(Cl)c(NCC3CC3)n2)c1` [compound 515] stands 1.66*; under `CCOC(=O)Nc1ccc(Nc2ncc(Cl)c(NCC3CC3)n2)cc1` [compound 543], 1.8*. In the case of `O=C(Nc1cccc(Nc2ncc(Br)c(NCC3CC3)n2)c1)Oc1ccccc1` [compound 466], the logP was 2.36*.

The data set is the same for the next values; noted with them: HPLC on reversed-phase C18, method **: 43° C.; mobile phase 0.1% aqueous phosphoric acid and acetonitrile; linear gradient 10% to 95% acetonitrile.
Regarding `O=C1CCCN1c1ccc(Nc2ncc(C(F)(F)F)c(NC3CC3)n2)cc1` [compound 342], the logP is 2.12**.

The same data set, now with this note: HPLC on reversed-phase C18, method *: 40° C., 0.1% aqueous formic acid and acetonitrile, linear gradient 10% to 95% acetonitrile.
Regarding `CCOc1cccc(Nc2ncc(Br)c(NC3CC3)n2)c1` [compound 751], the logP is given as 2.18*. For the molecule `FC(F)(F)c1cccc(Nc2ncc(Cl)c(NC3CC3)n2)c1` [compound 950], the logP is listed as 3.03*. With `Cc1ccc(C)c(Nc2ncc(Cl)c(NC3CC3)n2)c1` [compound 935], the logP is given as 1.83*.

`FC(F)c1cnc(Nc2ccccc2)nc1NCC1CC1` [compound 773]: the logP is recorded as 1.68*. `COC(=O)Nc1ccc(Nc2ncc(Cl)c(NC(C)C3CC3)n2)cc1` (stereo not drawn) [compound 168]: the logP is recorded as 1.64*. Regarding `FC(F)Sc1ccc(Nc2ncc(Br)c(NC3CC3)n2)cc1` [Example 104], the logP was 2.99*. Take `CCC(=O)c1cc(Nc2ncc(Br)c(NC3CC3)n2)ccc1O` [compound 760]: the logP is reported as 2.06*. The same measure, in the same setting: the value for `Clc1cc(Cl)cc(Nc2ncc(Cl)c(NCC3CC3)n2)c1` [compound 690] was 4.3*. The same measure, in the same setting: the value for `C=CCOc1cccc(Nc2ncc(Cl)c(NC3CC3)n2)c1` [compound 715] was 2.37*; that for `CC[S+]([O-])c1cccc(Nc2ncc(Br)c(NC3CC3)n2)c1` (racemic) [compound 958] was 1.59*; that for `Cc1ccc(Nc2ncc(Cl)c(NC3CC3)n2)cc1C` [compound 939] was 2.01*. In the case of `CC(C)Sc1cccc(Nc2ncc(Br)c(NC3CC3)n2)c1` [compound 707], the logP is 3.38*. As to `Brc1cnc(Nc2ccc(-c3cscn3)cc2)nc1NC1CC1` [compound 747], the logP is on record as 1.99*. Consider `CN1CC(=O)N(c2ccc(Nc3ncc(Cl)c(NC4CC4)n3)cc2)C1=O` [Example 107], for which the logP is 1.29*. In the case of `CC(C)(C)NC(=O)Cc1cccc(Nc2ncc(Br)c(NC3CC3)n2)c1` [compound 698], the logP is given as 1.94*. As to `Clc1cnc(Nc2ccccc2Cc2ccccc2)nc1NC1CC1` [compound 890], the logP is 2.21*. The same measure, in the same setting: under `CCOc1cccc(Nc2ncc(Cl)c(NCC3CC3)n2)c1` [compound 692] stands 2.21*.

Staying with this data set, now noted: HPLC on reversed-phase C18, method *: 40° C.; mobile phase 0.1% aqueous formic acid and acetonitrile; linear gradient 10% to 95% acetonitrile.
Turning to `COc1cccc(Nc2ncc(Cl)c(NC3CC3)n2)c1` [compound 283], the logP is given as 1.8*.

As for `Cc1cc(C)cc(Nc2ncc(Cl)c(NC3CC3)n2)c1` [compound 274], the logP is 2.13*. Same read-out and setting: the value for `COc1cc(Nc2ncc(Cl)c(NC3CC3)n2)ccc1NC(C)=O` [compound 280] was 1.18*.

The data set is the same for the next values; noted with them: HPLC on reversed-phase C18 column (EEC Directive 79/831 Annex V.A8); method *: 40° C.; 0.1% aqueous formic acid and acetonitrile; linear gradient 10% to 95% acetonitrile.
`CSc1cccc(Nc2ncc(C(F)(F)F)c(NCC3CC3)n2)c1` [compound 208]: the logP is 3.41*.

With `COc1cccc(Nc2ncc(C(F)(F)F)c(NCC3CC3)n2)c1` [compound 199], the logP is given as 2.91*.

Staying with this data set, now noted: HPLC reversed-phase C 18, EEC Directive 79/831 Annex V.A8; method **: 43° C., 0.1% aqueous phosphoric acid and acetonitrile, linear gradient 10% to 95% acetonitrile.
Consider `Cc1nc(Nc2cccc(N3CCCC3=O)c2)nc(NC2CC2)c1Cl` [compound 838], for which the logP is given as 1.47**.

Still in this data set, the particulars now being: HPLC reversed-phase C 18, EEC Directive 79/831 Annex V.A8; method *: 40° C., 0.1% aqueous formic acid and acetonitrile, linear gradient 10% to 95% acetonitrile.
As for `COCc1cccc(Nc2ncc(I)c(NC3CC3)n2)c1` [compound 847], the logP is given as 1.86*. With `O=C1COCCN1c1cccc(Nc2ncc(Br)c(NC3CC3)n2)c1` [compound 789], the logP is 1.24*.

Staying with this data set, now noted: method **: HPLC reversed-phase C 18, 43° C., 0.1% aqueous phosphoric acid and acetonitrile, linear gradient 10% to 95% acetonitrile.
As to `O=C1CCCN1c1ccc(Nc2ncc(Br)c(NCC3CC3)n2)cc1` [compound 457], the logP is 1.59**. On to `CN(C)S(=O)(=O)c1ccc(Nc2ncc(Cl)c(NCC3CC3)n2)cc1` [compound 14], for which the logP is listed as 2.36**. Take `COc1cc(Nc2ncc(Cl)c(NCC3CC3)n2)cc(OC)c1OC` [Example 12]: the logP is 1.78**. On the same count and under the same terms, the value for `CN(C)S(=O)(=O)c1ccc(Nc2ncc(Cl)c(NC3CC3)n2)cc1` [Example 6] was 2.26**; that for `Cl.Fc1cnc(Nc2ccccc2)nc1NC1CC1` [compound 41] was 1.45**. `NS(=O)(=O)c1cccc(Nc2ncc(Cl)c(NCC3CC3)n2)c1` [Example 16]: the logP is 1.51**.

Staying with this data set, now noted: method **: HPLC reversed-phase C 18, temperature 43° C.; mobile phase 0.1% aqueous phosphoric acid and acetonitrile; linear gradient 10% to 95% acetonitrile.
As to `CNC(=O)Oc1cccc(Nc2ncc(C(F)(F)F)c(NC3CC3)n2)c1` [compound 659], the logP is 2.13**. Take `Brc1cnc(Nc2cccc(N3CCCC3)c2)nc1NC1CC1` [compound 621]: the logP is 2.38**.

Turning to `COC(=O)Nc1cccc(Nc2ncc(C(F)(F)F)c(NC3CC3)n2)c1` [compound 660], the logP is 2.06**.

Staying with this data set, now noted: method *: HPLC reversed-phase C18, 40° C., 0.1% aqueous formic acid and acetonitrile, linear gradient 10% to 95% acetonitrile.
As to `O=C1CCCN1c1ccc(Nc2ncc(Br)c(NCC3CC3)n2)cc1` [compound 457], the logP was 1.66*;. `Cc1ccc(S(=O)(=O)O)cc1.O=C1CCCN1c1ccc(Nc2ncc(Cl)c(NC3CC3)n2)cc1` [Example 89]: the logP is on record as 1.44*.

For `CN(C)C(=O)c1ccc(Nc2ncc(Br)c(NCC3CC3)n2)cc1` [compound 452], the logP was 1.66*;. For `O=S(=O)(c1cccc(Nc2ncc(Br)c(NCC3CC3)n2)c1)N1CCCCC1` [compound 454], the logP is reported as 2.29*. On the same count and under the same terms, under `Clc1cccc(Nc2ncc(Cl)c(NC3CC3)n2)c1` [compound 1] stands 2.7*; under `N#CCS(=O)(=O)c1ccc(Nc2ncc(Cl)c(NC3CC3)n2)cc1` [compound 62], 2.2*. Still for that read-out and setting: under `C=CCS(=O)(=O)c1ccc(Nc2ncc(Cl)c(NC3CC3)n2)cc1` [Example 61] stands 2.18*; under `CNC(=O)c1cccc(Nc2ncc(Br)c(NCC3CC3)n2)c1` [compound 427], 1.53*. As for `CNC(=O)c1ccc(Nc2ncc(Br)c(NC3CC3)n2)cc1` [compound 382], the logP is recorded as 1.39*. On the same count and under the same terms, the value for `CC(C)C(=O)Nc1cccc(Nc2ncc(Br)c(NCC3CC3)n2)c1` [compound 460] was 1.85*. Turning to `CC(C)(C)NC(=O)c1ccc(Nc2ncc(Br)c(NCC3CC3)n2)cc1` [compound 426], the logP is given as 2.3*. Regarding `CC(C)CCSc1cccc(Nc2ncc(Cl)c(NC3CC3)n2)c1.Cc1ccc(S(=O)(=O)O)cc1` [compound 441], the logP is 4.24*. With `CCCNS(=O)(=O)Cc1ccc(Nc2ncc(Cl)c(NC3CC3)n2)cc1` [compound 371], the logP is 1.79*. As to `CNC(=O)Oc1cccc(Nc2ncc(Br)c(NCC3CC3)n2)c1` [compound 429], the logP is 1.68*. `COc1cc(Nc2ncc(Cl)c(NC3CC3)n2)cc(OC)c1` [Example 3]: the logP is listed as 1.91*.

The same data set, now with this note: method *: HPLC reversed-phase C 18, temperature 40° C.; mobile phase 0.1% aqueous formic acid and acetonitrile; linear gradient 10% to 95% acetonitrile.
For `CN(C)C(=O)c1cccc(Nc2ncc(C#N)c(NC3CC3)n2)c1` [compound 614], the logP is reported as 1.83*. Regarding `O=C(NC1CC1)c1cccc(Nc2ncc(Cl)c(NC3CC3)n2)c1` [compound 629], the logP is reported as 1.39*. On the same count and under the same terms, the value for `CNC(=O)Oc1cccc(Nc2ncc(C(F)(F)F)c(NC3CC3)n2)c1` [compound 659] was 2.06*;; that for `CN(C)S(=O)(=O)c1ccc(Nc2ncc(F)c(NC3CC3)n2)cc1` [compound 578] was 1.68*. On to `Fc1cc(F)cc(Nc2ncc(Br)c(NC3CC3)n2)c1` [compound 602], for which the logP is on record as 3.35*. Consider `CCOC(=O)Nc1ccc(Nc2ncc(F)c(NC3CC3)n2)cc1` [compound 595], for which the logP is listed as 1.46*. Turning to `CC(=O)Nc1cc(Nc2ncc(F)c(NC3CC3)n2)ccc1C` [compound 601], the logP is 1.15*.

For `COC(=O)Nc1cccc(Nc2ncc(C(F)(F)F)c(NC3CC3)n2)c1` [compound 660], the logP is 2.16*;.

As to `O=C(NCC(F)(F)F)c1cccc(Nc2ncc(Cl)c(NC3CC3)n2)c1` [compound 630], the logP is listed as 1.8*.

On to `Fc1cc(F)cc(Nc2ncc(Cl)c(NCC3CC3)n2)c1` [compound 603], for which the logP was 3.42*.

The data set is the same for the next values; noted with them: method *: HPLC, reversed-phase C 18, 40° C., mobile phase 0.1% aqueous formic acid and acetonitrile, linear gradient from 10% to 95% acetonitrile.
For `CC1CCCN1C(=O)c1cccc(Nc2ncc(Cl)c(NC3CC3)n2)c1` (stereo not drawn) [compound 1062], the logP is given as 1.86*. Consider `COCc1cc(COC)cc(Nc2ncc(Cl)c(NC3CC3)n2)c1` [compound 1012], for which the logP is listed as 1.76*. For the molecule `COC(=O)c1cc(Nc2ncc(Cl)c(NC3CC3)n2)cc(C(=O)OC)c1` [compound 1001], the logP is given as 2.46*.

Consider `Fc1ccc(Nc2ncc(Cl)c(NC3CC3)n2)cc1OC(F)F` [compound 1053], for which the logP was 2.62*. As for `CCOC(=O)c1cc(Nc2ncc(Cl)c(NC3CC3)n2)ccc1Cl` [compound 990], the logP was 2.84*.

The data set is the same for the next values; noted with them: pH 2.3; read-out: logP (pH2.3).
Consider `Clc1cnc(Nc2ccccc2)nc1Cl` [4,5-Dichloro-N-phenylpyrimidine-2-amine], for which the chromatographic logP was determined as 3.52. Same read-out and setting: the value for `O=C(O)c1ccc(Nc2ncc(Cl)c(NC3CC3)n2)cc1` [4-{[5-chloro-4-(cyclopropylamino)pyrimidin-2-yl]amino}benzoic acid] was 1.55.

These data come from patent US20100081679A1, “DIAMINOPYRIMIDINES AS FUNGICIDES” (Bayer CropScience AG, priority 2007, published 2010).
